Consider 13 compounds from patent US11512097B2, “Heterocyclic compounds as Delta-5 desaturase inhibitors and methods of use” (Amgen Inc., priority 2019, dated 2022).

This assay deals with T1, Delta-5-Desaturase (D5D), membrane preparations of D5D-overexpressing HEK293 6E cells (Homo sapiens, UniProt O60427).
T1 construct: expressed in transfected cells; host or cells: HEK293 6E cells (membrane preparation)
T1 sequence (O60427 whole entry, species assumed): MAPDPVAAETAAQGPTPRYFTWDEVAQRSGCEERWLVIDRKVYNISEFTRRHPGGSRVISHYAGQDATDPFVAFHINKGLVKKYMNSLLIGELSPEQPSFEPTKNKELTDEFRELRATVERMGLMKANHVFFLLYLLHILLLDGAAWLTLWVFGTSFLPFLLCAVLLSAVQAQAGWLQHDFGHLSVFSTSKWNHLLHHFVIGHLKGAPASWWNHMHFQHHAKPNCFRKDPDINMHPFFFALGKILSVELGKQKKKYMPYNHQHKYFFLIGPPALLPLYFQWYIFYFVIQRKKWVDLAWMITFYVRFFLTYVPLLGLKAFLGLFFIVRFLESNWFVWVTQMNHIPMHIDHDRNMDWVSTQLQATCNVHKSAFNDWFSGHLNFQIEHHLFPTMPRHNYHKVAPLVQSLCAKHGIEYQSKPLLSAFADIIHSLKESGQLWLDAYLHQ
Nature of the assay: In vitro measurement of Delta-5-Desaturase inhibitory activity using DGLA-CoA and Arachidonyl-CoA mass spectrometric assays. The class given is biochemical. The following applies: D5D membrane 10 μg/mL, one-hour incubation, average of at least two independent runs. The method, boiled down:
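Substrate mix (0.01 mM DGLA with NADH, ATP, coenzyme A) was incubated 1 h at room temperature with HEK293 6E D5D membranes at 10 μg/mL final, pH 7.5. Negative-mode SPE-MS/MS monitored DGLA-CoA (m/z 526.6) and arachidonyl-CoA (m/z 525.6). Inhibition normalised to DMSO and no-enzyme wells gave IC50s, mean of ≥2 runs.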
By IC50 is commonly meant the concentration needed to halve the response being measured. The low end stands for greater potency in that assay, the high end for weaker potency in that assay. Take `Cc1cn2c(=O)c(-c3cnn(CC(F)(F)C(F)(F)F)c3)c(C(F)(F)F)nc2n1-c1cccc(Cl)n1` [Example 101, 1-(6-chloropyridin-2-yl)-2-methyl-6-[1-(2,2,3,3,3-pentafluoropropyl)-1H-pyrazol-4-yl]-7-(trifluoromethyl)-1H,5H-imidazo[1,2-a]pyrimidin-5-one]: the IC50 is 397 nM. This lies in the sub-micromolar range.
As for `O=c1c(-c2cnn(CC(F)(F)C(F)(F)F)c2)c(C(F)(F)F)nc2sccn12` [Example 1, 6-[1-(2,2,3,3,3-pentafluoropropyl)-1H-pyrazol-4-yl]-7-(trifluoromethyl)-5H-[1,3]thiazolo[3,2-a]pyrimidin-5-one], the IC50 was determined as 3.8 nM.
To `Cc1cn2c(=O)c(-c3cnn(CC(F)(F)C(F)(F)F)c3)c(C(F)(F)F)nc2n1CCN(C)C` [Example 84, 1-[2-(dimethylamino)ethyl]-2-methyl-6-[1-(2,2,3,3,3-pentafluoropropyl)-1H-pyrazol-4-yl]-7-(trifluoromethyl)-1H,5H-imidazo[1,2-a]pyrimidin-5-one] belongs 193 nM; to `Cc1cn2c(=O)c(-c3cnn(CCC(F)(F)F)c3)c(C(F)(F)F)nc2n1C` [Example 53, 1,2-dimethyl-7-(trifluoromethyl)-6-[1-(3,3,3-trifluoropropyl)-1H-pyrazol-4-yl]-1H,5H-imidazo[1,2-a]pyrimidin-5-one], 6.4 nM.
`Cc1nn2c(=O)c(-c3cnn(C[C@H]4CC4(F)F)c3)c(C(F)(F)F)nc2s1` (single isomer, unassigned) [Example 111] returned an IC50 of 452 nM.
The value for `Cc1cn2c(=O)c(-c3cnn(CC(F)(F)C(F)(F)F)c3)c(C(F)(F)F)nc2n1-c1ccncc1` [Example 102, 2-methyl-6-[1-(2,2,3,3,3-pentafluoropropyl)-1H-pyrazol-4-yl]-1-(pyridin-4-yl)-7-(trifluoromethyl)-1H,5H-imidazo[1,2-a]pyrimidin-5-one] was 8400 nM.
`O=c1c(-c2cnn(CC(F)(F)C(F)(F)F)c2)c(C(F)(F)F)nc2sc(CO)cn12` [Example 32, 2-(hydroxymethyl)-6-[1-(2,2,3,3,3-pentafluoropropyl)-1H-pyrazol-4-yl]-7-(trifluoromethyl)-5H-[1,3]thiazolo[3,2-a]pyrimidin-5-one] gave an IC50 of 45.6 nM.
`Cc1cn2c(=O)c(-c3cnn(CC4CC4)c3)c(C(F)(F)F)nc2n1C` [Example 61, 6-[1-(cyclopropylmethyl)-1H-pyrazol-4-yl]-1,2-dimethyl-7-(trifluoromethyl)-1H,5H-imidazo[1,2-a]pyrimidin-5-one]: the midpoint of inhibition, the IC50, lay at 73.7 nM.
The compound `Cc1cn2c(=O)c(-c3cnn(CC4CC4(F)F)c3)c(C(F)(F)F)nc2n1C` (stereo not shown) [Example 59, 6-{1-[(2,2-difluorocyclopropyl)methyl]-1H-pyrazol-4-yl}-1,2-dimethyl-7-(trifluoromethyl)-1H,5H-imidazo[1,2-a]pyrimidin-5-one] returned an IC50 of 11 nM.
To `Cc1cn2c(=O)c(-c3cnn(C[C@@H]4CC4(F)F)c3)c(C(F)(F)F)nc2n1C` (single isomer, unassigned) [Example 110] belongs 24.1 nM.
Compound `Cc1cn2c(=O)c(-c3cnn(CC(F)(F)C(F)(F)F)c3)c(C(F)(F)F)nc2o1` [Example 39, 2-methyl-6-[1-(2,2,3,3,3-pentafluoropropyl)-1H-pyrazol-4-yl]-7-(trifluoromethyl)-5H-[1,3]oxazolo[3,2-a]pyrimidin-5-one] yielded an IC50 of 18.8 nM.
The compound `Cc1nn2c(=O)c(-c3cnn(C[C@@H]4CC4(F)F)c3)c(C(F)(F)F)nc2s1` (single isomer, unassigned) [Example 112] gave an IC50 of 861 nM.
To `O=c1c(-c2ccc(OCC(F)(F)F)cc2)c(C(F)(F)F)nc2sc(Cl)cn12` [Example 34, 2-chloro-6-[4-(2,2,2-trifluoroethoxy)phenyl]-7-(trifluoromethyl)-5H-[1,3]thiazolo[3,2-a]pyrimidin-5-one] belongs 4.8 nM.
